The NIST ThermoML archive (doi:10.1021/je300633e)
Numbers after ± are expanded uncertainties.

Key:
[1] = mn = molality of the nth substance listed, in mol/kg; conditions: 298.15 K, 101 kPa, Liquid, Vibrating tube method
[2] = refractive index (Na D-line) (dimensionless); mn = molality of the nth substance listed, in mol/kg; conditions: 298.15 K, 101 kPa, Liquid, Standard Abbe refractometry

Compound | mass density ([1]; m1 = 0.1) [kg/m3] | mass density ([1]; m1 = 0.2) [kg/m3] | mass density ([1]; m1 = 0.3) [kg/m3] | mass density ([1]; m1 = 0.5) [kg/m3] | mass density ([1]; m1 = 0.7) [kg/m3] | mass density ([1]; m1 = 0.9) [kg/m3] | refractive index ([2]; m1 = 0.1) | refractive index ([2]; m1 = 0.2) | refractive index ([2]; m1 = 0.3) | refractive index ([2]; m1 = 0.5) | refractive index ([2]; m1 = 0.7) | refractive index ([2]; m1 = 0.9) | mass density ([1]; m1 = 0.15) [kg/m3] | mass density ([1]; m1 = 0.25) [kg/m3] | mass density ([1]; m1 = 0.35) [kg/m3] | mass density ([1]; m1 = 0.4) [kg/m3] | refractive index ([2]; m1 = 0.15) | refractive index ([2]; m1 = 0.25) | refractive index ([2]; m1 = 0.35) | refractive index ([2]; m1 = 0.4)
OC[C@@H](O)[C@@H](O)[C@H](O)[C@H](O)CO [D-mannitol] + O | 1003.27 ± 1 | 1009.2 ± 1 | 1015.29 ± 1 | 1026.51 ± 1 | 1037.43 ± 1 | 1047.8 ± 1 | 1.3349 ± 0.0009 | 1.3367 ± 0.0009 | 1.3398 ± 0.0009 | 1.344 ± 0.0009 | 1.349 ± 0.0009 | 1.3532 ± 0.0009 |  |  |  |  |  |  |  | 
CC(=O)NCCCCCCNC(C)=O [N,N'-diacetyl-1,6-hexanediamine] + O | 997.981 ± 1.1 | 998.931 ± 1.1 | 999.901 ± 1.1 |  |  |  | 1.3348 ± 0.0009 | 1.3382 ± 0.0009 | 1.3409 ± 0.0009 |  |  |  | 998.443 ± 1.1 | 999.413 ± 1.1 | 1000.37 ± 1.1 | 1000.88 ± 1.1 | 1.3363 ± 0.0009 | 1.3393 ± 0.0009 | 1.3419 ± 0.0009 | 1.3431 ± 0.0009
OC[C@@H](O)[C@H](O)[C@@H](O)CO [xylitol] + O | 1002 ± 1.1 | 1006.92 ± 1.1 | 1011.76 ± 1.1 | 1020.96 ± 1.1 | 1029.87 ± 1.1 | 1038.33 ± 1.1 | 1.3341 ± 0.0009 | 1.3361 ± 0.0009 | 1.3382 ± 0.0009 | 1.3423 ± 0.0009 | 1.346 ± 0.0009 | 1.3494 ± 0.0009 |  |  |  |  |  |  |  | 
